Entries after “also recorded” stand apart in the source; their conditions may differ. Read-outs that look alike come from different tables or passages of the source.
How the values were obtained:
[1] = tested on: animal models of seizure; conditions: in vivo; cited from earlier work
[2] = tested on: Ube3am-/p+ (AS) mice; experiment: Tail suspension test in Angelman syndrome model; type: in vivo, mouse; conditions: CBDV 20 mg/kg i.p.; AS mice vs AS vehicle
Method: Heterozygous mice with maternal deficiency of Ube3A (Ube3am−/p+) and wild type (Ube3am+/p+) were purchased from The Jackson Laboratory (Jackson code: B6.129S7-Ube3a tm1Alb/J) and maintained in a C57BL/6 background.
Drugs were dissolved in 1:1:18 ethanol:cremophor:0.9% saline, for intraperitoneal (i.p.) administration. Drug treatment was performed daily for 35 days. CBDV was administered at 20 mg/kg.
Tail suspension: The tail suspension test assesses depressive-like behaviour in mice. Mice were individually suspended by the tail on a horizontal bar (50 cm from floor) using adhesive tape placed approximately 4 cm from the tip of the tail. The duration of immobility was recorded in seconds over a period of 6 minutes by a time recorder. Immobility time was defined as the absence of escape-oriented behaviour.

[3] = tested on: GFAP, CD11b, TNFα expression in the hippocampus; experiment: Neuroinflammation studies, hippocampus protein expression by Western blotting, prenatal VPA model; type: in vivo, rat
Method: At the end of the study, on PND 59, male rats treated with CBDV 20 mg/kg i.p. were sacrificed and the hippocampus was collected 24 hours after the last CBDV injection and stored at −80° C. for evaluation of changes in protein expression of components of the endocannabinoid system (CB1 and CB2 receptors, the endocannabinoid degrading enzymes, FAAH and MAGL and the synthetic enzymes, DAGLα and NAPE-PLD); neuroinflammatory markers (GFAP (astrocytic marker), Iba1 (microglial marker), CD11b (activated microglial marker), TNF-α (proinflammatory cytokine) and iNOS (inflammatory mediator)); synaptic markers (Synaptophysin (synaptic vesicle protein), PSD-95 (post synaptic density protein) and the neurotrophins, BDNF and IGF by Western blotting.

[4] = tested on: Fmr1 KO mice; experiment: Audiogenic seizure susceptibility, Fmr1 KO (FXS) mice; type: in vivo, mouse; conditions: for audiogenic seizures: FXS mice PND21
Method: (§1) This trait was evaluated in PND21 mice after acute administration of the compounds or its vehicle, 30 min before starting the procedure. To measure audiogenic seizure sensitivity mice were placed individually into a novel environment, a glass cylinder (40 cm high, 16 cm diameter) and allowed to explore for 1 min. Next, a bell (100 dB) was rung for 30 sec and seizure activity scored according to the following scale: no response, 0; wild running, 1; clonic seizure, 2; tonic seizure, 3; status epilepticus/respiratory arrest/death, 4.
(§2) On postnatal day 21 (PND21) WT and Fmr1 KO mice were injected with CBDV (2, 10, 20 or 100 mg/kg) or vehicle, 30 min before exposure to a bell ring (100 dB). Mice exposed to this noise for 30 sec ceased from their normal exploratory behaviour and reacted with gradually to wild-running, clonic seizure, tonic seizure or death. The maximum response was annotated for each mouse as detailed in Table 2 below. A score was calculated according to the severity of the symptoms as explained in the Methods section.

[5] = tested on: WT mice; experiment: Audiogenic seizure susceptibility, WT mice; type: in vivo, mouse; conditions: WT PND21
Method: as §1, §2

[6] = tested on: VPA-exposed rats; experiment: Sociability and preference for social novelty, 3-chamber apparatus, prenatal VPA model; type: in vivo, rat
Method: Pregnant Sprague-Dawley rats (Charles River, Calco, Italy), received a single intraperitoneal injection of 500 mg/kg sodium valproate on the 12.5 day after conception, and control females were injected with physiological saline at the same time. Sodium valproate (Sigma Aldrich, Milan, IT) was dissolved in saline at a concentration of 250 mg/ml.
CBDV was dissolved in ethanol, cremophor and saline (1:1:18). Symptomatic treatment with CBDV at doses of 0.2, 2, 20, and 100 mg/kg/day i.p. was performed starting from PND 34 (early adolescence) till 56 (early adulthood), both in male and female offspring of dams injected with VPA 500 mg/kg (or vehicle) on day 12.5 after conception. At PND 56, a series of behavioural tests was performed in order to assess the effect of chronic CBDV on sociability, social novelty, short-term memory, locomotion and stereotyped/repetitive behaviours.
Sociability and preference for social novelty: These behaviours were investigated in a 3-chamber apparatus which allows for the measurement of social approach and social preference. In brief, animals were placed into a novel arena (80 cm×31.5 cm) composed of three communicating chambers separated by Perspex walls with central openings allowing access to all chambers for 5 min.
Following this acclimatisation period, animals were briefly confined to the central chamber while an unfamiliar rat confined in a small wire cage was placed in one of the outer chambers. An identical empty wire cage was placed in the other chamber. The unfamiliar rat was randomly assigned to either the right or left chamber of the arena. The test animal was then allowed to explore the arena/chambers for a further 5 min. Time spent engaging in investigatory behaviour with the rat was evaluated with the aid of Anymaze program (Ugo Basile, Italy) in order to examine social approach.
To investigate the preference for social novelty, a novel unfamiliar rat was then placed in the empty cage and the test animal was then allowed to explore the arena/chambers for a further 5 min. Time spent engaging in investigatory behaviour with the novel unfamiliar rat was evaluated with the aid of Anymaze program (Ugo Basile, Italy) in order to examine preference for social novelty.

[7] = FXS (Fmr1 KO) PND21, CBDV 2 mg/kg acute, n = 5
[8] = FXS (Fmr1 KO) PND21, CBDV 10 mg/kg acute, n = 5
[9] = FXS (Fmr1 KO) PND21, CBDV 20 mg/kg acute, n = 5
[10] = FXS (Fmr1 KO) PND21, CBDV 100 mg/kg acute, n = 5

C=C(C)[C@@H]1CCC(C)=C[C@H]1c1c(O)cc(CCC)cc1O [CBDV, Cannabidivarin]
efficacy in animal models of seizure [1]: effective | duration of immobility time, tail suspension (FIG. 14) [2]: significantly reduced the duration of immobility time | expression of inflammatory markers that were increased (GFAP, CD11b, TNFα) in hippocampus (FIG. 2D) ([3]; chronic CBDV 20 mg/kg i.p., male VPA-exposed rats): completely normalised | expression of inflammatory markers in hippocampus (FIG. 2D) ([3]; chronic CBDV, control rats): no effect | maximum response: No response (number of mice) [4]: 2 | maximum response: Clonic seizure (number of mice) [4, 7]: 0 | maximum response: Death (number of mice) [4, 7]: 0 | maximum response: Tonic seizure (number of mice) [4, 7]: 2 | maximum response: Wild running (number of mice) [4, 7]: 1 | maximum response: Clonic seizure (number of mice) [4, 8]: 0 | maximum response: Death (number of mice) [4, 8]: 0 | maximum response: No response (number of mice) [4, 8]: 0 | maximum response: Tonic seizure (number of mice) [4, 8]: 2 | maximum response: Wild running (number of mice) [4, 8]: 3 | maximum response: Clonic seizure (number of mice) [4, 9]: 0 | maximum response: Death (number of mice) [4, 9]: 0 | maximum response: No response (number of mice) [4, 9]: 2 | maximum response: Tonic seizure (number of mice) [4, 9]: 2 | maximum response: Wild running (number of mice) [4, 9]: 1 | maximum response: Clonic seizure (number of mice) [4, 10]: 0 | maximum response: Death (number of mice) [4, 10]: 0 | maximum response: No response (number of mice) [4, 10]: 5 | maximum response: Tonic seizure (number of mice) [4, 10]: 0 | maximum response: Wild running (number of mice) [4, 10]: 0 | audiogenic seizures ([4]; acute 100 mg/kg): remained seizure free; also recorded: completely eliminate the seizures | audiogenic seizures ([4]; acute lower doses (2, 10, 20 mg/kg)): experienced seizures of varying severity | maximum response: Clonic seizure (number of mice) ([5]; CBDV 2 mg/kg acute, n = 6): 0 | maximum response: Death (number of mice) ([5]; CBDV 2 mg/kg acute, n = 6): 0 | maximum response: Tonic seizure (number of mice) ([5]; CBDV 2 mg/kg acute, n = 6): 0 | maximum response: Wild running (number of mice) ([5]; CBDV 2 mg/kg acute, n = 6): 0 | maximum response: Clonic seizure (number of mice) ([5]; CBDV 10 mg/kg acute, n = 5): 0 | maximum response: Death (number of mice) ([5]; CBDV 10 mg/kg acute, n = 5): 0 | maximum response: Tonic seizure (number of mice) ([5]; CBDV 10 mg/kg acute, n = 5): 0 | maximum response: Wild running (number of mice) ([5]; CBDV 10 mg/kg acute, n = 5): 0 | maximum response: Clonic seizure (number of mice) ([5]; CBDV 20 mg/kg acute, n = 6): 0 | maximum response: Death (number of mice) ([5]; CBDV 20 mg/kg acute, n = 6): 0 | maximum response: Tonic seizure (number of mice) ([5]; CBDV 20 mg/kg acute, n = 6): 0 | maximum response: Wild running (number of mice) ([5]; CBDV 20 mg/kg acute, n = 6): 1 | maximum response: Clonic seizure (number of mice) ([5]; CBDV 100 mg/kg acute, n = 6): 0 | maximum response: Death (number of mice) ([5]; CBDV 100 mg/kg acute, n = 6): 0 | maximum response: Tonic seizure (number of mice) ([5]; CBDV 100 mg/kg acute, n = 6): 0 | maximum response: Wild running (number of mice) ([5]; CBDV 100 mg/kg acute, n = 6): 0 | restoration of social novelty preference (FIG. 1A) ([6]; CBDV 20 mg/kg/day i.p. PND 34-56, VPA offspring, p<0.001 in males, p<0.01 in females): statistically significant effect | reduction of preference index compared to controls ([6]; VPA-CBDV animals, VPA alone about 48%): about 13% | impairment in sociability (FIG. 1B) ([6]; all doses (0.2, 2, 20, 100 mg/kg/day i.p.), VPA rats): significantly reduced the impairment in sociability | deficit in social preference (FIG. 1C), time exploring novel vs familiar rat ([6]; doses of 20 mg/kg and 100 mg/kg, VPA rats): reversed the deficit in social preference
